Assay results as given in PMC2967433 (Bioconjugate chemistry, 2010).

Columns and labels:
[1] = target: T1, FK506 Binding Protein 12 kDa (FKBP12) (Homo sapiens, UniProt P62942); experiment: TR-FRET tracer binding
[2] = target: T1, FK506 Binding Protein 12 kDa (FKBP12); experiment: TR-FRET competition with fluorescein-labeled SLF

T1 sequence (P62942 2-108): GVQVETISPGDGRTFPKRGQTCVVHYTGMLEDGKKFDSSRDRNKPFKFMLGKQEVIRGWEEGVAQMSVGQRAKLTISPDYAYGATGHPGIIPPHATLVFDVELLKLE

Row | Compound | Kd [1] [nM] | IC50 [2] [nM]
1 | SLF-Fl | 30 | 
2 | CCC(C)(C)C(=O)C(=O)N1CCCC[C@H]1C(=O)O[C@H](CCc1ccc(OC)c(OC)c1)c1cccc(OCC(=O)O)c1 [SLF-OH] |  | 200
